{"source": "patent US8575197B2", "about": "“Pyrolinone derivative and pharmaceutical composition comprising the same” (Shionogi & Co., Ltd., priority 2008, dated 2013)", "data": [{"target": "human P2X3 receptor (Homo sapiens (Human), UniProt P56373)", "sequence (P56373 whole entry)": "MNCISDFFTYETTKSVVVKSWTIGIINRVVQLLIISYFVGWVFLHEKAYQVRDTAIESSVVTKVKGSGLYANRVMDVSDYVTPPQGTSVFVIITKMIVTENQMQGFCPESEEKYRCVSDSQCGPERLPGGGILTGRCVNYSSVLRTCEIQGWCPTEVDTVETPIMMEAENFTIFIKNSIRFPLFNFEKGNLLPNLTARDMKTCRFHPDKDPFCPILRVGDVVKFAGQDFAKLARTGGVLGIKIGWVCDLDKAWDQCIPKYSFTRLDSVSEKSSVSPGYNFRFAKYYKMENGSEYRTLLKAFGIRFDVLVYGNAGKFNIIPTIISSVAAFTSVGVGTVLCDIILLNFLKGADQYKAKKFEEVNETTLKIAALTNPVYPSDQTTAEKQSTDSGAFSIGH", "assay": "P2X3 receptor inhibition, ATP-evoked Fluo-3 calcium fluorescence (FDSS 3000)", "assay_type": "cell-based", "details": "C6BU-1 cell transfected with human P2X3 receptor gene; ATP-evoked Fluo-3 fluorescence", "how_it_was_run": "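C6BU-1 cells stably transfected with human P2X3, loaded with 4 μM Fluo-3-AM for 1 h at 37 °C in HEPES buffer pH 7.5 with probenecid. Compound added 5 min before 40 nM ATP solution; fluorescence followed 3 min. IC50 from ratio of peak post-ATP to baseline fluorescence.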", "units": {"IC50": "µM"}, "values": [{"smiles": "COCCOc1ccccc1C1c2c(C(C)(C)CO)n[nH]c2C(=O)N1c1ccc(-c2ccon2)cc1", "note": "(stereo not drawn) [II-132]", "IC50": 0.141}, {"smiles": "COCCOc1ncccc1C1c2c(C(C)(C)C)n[nH]c2C(=O)N1c1ccc(-c2ccoc2)cc1", "note": "(stereo not drawn) [II-038]", "IC50": 0.014}, {"smiles": "CCC(CC)C1C(C(=O)c2ccc(C(=O)NCCO)cc2)=C(O)C(=O)N1c1ccc(-c2ccon2)cc1", "note": "(stereo not drawn) [Compound I-008]", "IC50": 0.014}, {"smiles": "COc1ccccc1C1C(C(=O)C(C)(C)C)=C(O)C(=O)N1c1ccc(C(C)C)cc1", "note": "(stereo not drawn) [Compound I-037]", "IC50": 0.954}, {"smiles": "Cc1nc(-c2ccc(N3C(=O)C(O)=C(C(=O)C(C)C)C3c3ccccc3OCC#N)cc2)no1", "note": "(stereo not drawn) [Compound I-508]", "IC50": 0.133}, {"smiles": "COCCOc1ncccc1C1C(C(=O)C(C)C)=C(O)C(=O)N1c1ccc(-c2ccc(C)s2)cc1", "note": "(stereo not drawn) [Compound I-267]", "IC50": 0.014}, {"smiles": "CCNC(=O)c1ncccc1C1C(C(=O)CC(C)C)=C(O)C(=O)N1c1ccc(-c2ccc(C)s2)cc1", "note": "(stereo not drawn) [Compound I-530]", "IC50": 0.237}, {"smiles": "CC(C)CC(=O)C1=C(O)C(=O)N(c2ccc(-c3ccsc3)cc2)C1c1ccccc1OCCCO", "note": "(stereo not drawn) [Compound I-366]", "IC50": 0.013}, {"smiles": "COc1ccccc1C1c2c(C(C)(C)CO)n[nH]c2C(=O)N1c1ccc(-c2ccsc2)cc1", "note": "(stereo not drawn) [II-217]", "IC50": 0.003}, {"smiles": "CC(C)CC(=O)C1=C(O)C(=O)N(c2ccc(-c3ccoc3)cc2)C1c1ccccc1OC(F)(F)F", "note": "(stereo not drawn) [Compound I-343]", "IC50": 0.078}, {"smiles": "COCCOc1ccccc1C1C(C(=O)CC(C)C)=C(O)C(=O)N1c1ccc(-c2ccc(C)s2)cc1", "note": "(stereo not drawn) [Compound I-304]", "IC50": 0.021}, {"smiles": "Cc1ccc(-c2ccc(N3C(=O)C(O)=C(C(=O)C(C)C)C3c3ccccc3OC(C)C)cc2)s1", "note": "(stereo not drawn) [Compound I-400]", "IC50": 0.022}, {"smiles": "COCCOc1ccccc1C1C(C(=O)C(C)(C)C)=C(O)C(=O)N1c1ccc(-c2noc(C)n2)cc1", "note": "(stereo not drawn) [Compound I-129]", "IC50": 0.091}, {"smiles": "CC(C)(C)c1n[nH]c2c1C(c1ccccc1O)N(c1ccc(-c3ccon3)cc1)C2=O", "note": "(stereo not drawn) [II-107]", "IC50": 0.114}, {"smiles": "CC(C)COc1ccccc1C1C(C(=O)C(C)C)=C(O)C(=O)N1c1ccc(-c2ccsc2)cc1", "note": "(stereo not drawn) [Compound I-449]", "IC50": 0.013}, {"smiles": "CSc1ccc(N2C(=O)C(O)=C(C(=O)C(C)C)C2c2ccccc2OCC#N)cc1", "note": "(stereo not drawn) [Compound I-509]", "IC50": 0.247}, {"smiles": "COc1ccc(F)cc1C1C(C(=O)C(C)C)=C(O)C(=O)N1c1ccc(-c2ccsc2)cc1", "note": "(stereo not drawn) [Compound I-452]", "IC50": 0.026}, {"smiles": "CC(C)c1n[nH]c2c1C(c1ccccc1C(=O)NCCO)N(c1ccc(-c3ccsc3)cc1)C2=O", "note": "(stereo not drawn) [II-091]", "IC50": 0.002}, {"smiles": "CNC(=C(C)C)C1=C(O)C(=O)N(c2ccc(-c3ccsc3)cc2)C1c1cccnc1O", "note": "(stereo not drawn) [Compound I-253]", "IC50": 0.193}, {"smiles": "CSc1ccc(N2C(=O)C(O)=C(C(=O)C(C)(C)C)C2c2ccccc2OCCO)cc1", "note": "(stereo not drawn) [Compound I-081]", "IC50": 0.151}, {"smiles": "COCCc1ccccc1C1C(C(=O)C(C)C)=C(O)C(=O)N1c1ccc(-c2ccsc2)cc1", "note": "(stereo not drawn) [Compound I-247]", "IC50": 0.015}, {"smiles": "COCCN(C)C(=O)c1ccccc1C1C(C(=O)C(C)C)=C(O)C(=O)N1c1ccc(-c2csc(C)c2)cc1", "note": "(stereo not drawn) [Compound I-547]", "IC50": 0.217}, {"smiles": "CNC(=O)c1n[nH]c2c1C(c1ccccc1OC)N(c1ccc(-c3ccsc3)cc1)C2=O", "note": "(stereo not drawn) [II-181]", "IC50": 0.301}, {"smiles": "COCCOc1ncccc1C1C(C(=O)CC(C)C)=C(O)C(=O)N1c1ccc(-c2ccsc2)cc1", "note": "(stereo not drawn) [Compound I-248]", "IC50": 0.03}, {"smiles": "Cc1cc(-c2ccc(N3C(=O)C(O)=C(C(=O)CC(C)C)C3c3ccccc3OC(F)(F)F)cc2)cs1", "note": "(stereo not drawn) [Compound I-378]", "IC50": 0.192}, {"smiles": "COCc1ccccc1C1C(C(=O)C(C)C)=C(O)C(=O)N1c1ccc2sc(C)nc2c1", "note": "(stereo not drawn) [Compound I-385]", "IC50": 0.227}, {"smiles": "CC(C)(C)c1n[nH]c2c1C(c1ccccc1OCC(N)=O)N(c1ccc(-c3ccsc3)cc1)C2=O", "note": "(stereo not drawn) [II-169]", "IC50": 0.004}, {"smiles": "COCc1ccccc1C1C(C(=O)CC(C)C)=C(O)C(=O)N1c1ccc(-c2csc(C)c2)cc1", "note": "(stereo not drawn) [Compound I-376]", "IC50": 0.025}, {"smiles": "CC(C)(C)c1n[nH]c2c1C(c1ccccc1OCCO)N(c1ccc(-c3ccsc3)cc1)C2=O", "note": "(stereo not drawn) [II-104]", "IC50": 0.003}, {"smiles": "CC(=O)Nc1ccccc1C1c2c(C(C)C)n[nH]c2C(=O)N1c1ccc(-c2ccsc2)cc1", "note": "(stereo not drawn) [II-085]", "IC50": 0.023}, {"smiles": "COc1ccccc1C1c2c(C(C)(C)CO)n[nH]c2C(=O)N1c1ccc(-c2ccsc2)cn1", "note": "(stereo not drawn) [II-251]", "IC50": 0.008}, {"smiles": "COc1ccccc1C1c2c(C(C)C)n[nH]c2CN1c1ccc(-c2ccsc2)cc1", "note": "(stereo not drawn) [II-067]", "IC50": 0.153}, {"smiles": "COCc1ccccc1C1C(C(=O)CC(C)C)=C(O)C(=O)N1c1ccc(SC)cc1", "note": "(stereo not drawn) [Compound I-437]", "IC50": 0.111}]}]}
